B1: Decorin: small leucine-rich proteoglycan, TGF-β1/2 antagonist; recombinant form tested in rat SCI models (protein, UniProt P07585 31-359, looked up)
Decorin: DEASGIGPEVPDDRDFEPSLGPVCPFRCQCHLRVVQCSDLGLDKVPKDLPPDTTLLDLQNNKITEIKDGDFKNLKNLHALILVNNKISKVSPGAFTPLVKLERLYLSKNQLKELPEKMPKTLQELRAHENEITKVRKVTFNGLNQMIVIELGTNPLKSSGIENGAFQGMKKLSYIRIADTNITSIPQGLPPSLTELHLDGNKISRVDAASLKGLNNLAKLGLSFNSISAVDNGSLANTPHLRELHLDNNKLTRVPGGLAEHKYIQVVYLHNNNISVVGSSDFCPPGHNTKKASYSGVSLFSNPVQYWEIQPSTFRCVYVRSAIQLGNYK

Tests used:
[1] = test system: subjects with subacute cervical spinal cord injury (C4-C7, AIS A/B); assay: Phase 1/2a cervical SCI dose escalation study: safety, adverse events, MRI; format: in vivo, human
Method: Study Design. The trial design was an open-label, staggered dose escalation, cross-sequential, multicenter study. Three sequential, escalating doses of AST-OPC1 were administered at a single tie point between 21 and 42 days post-injury to subjects with subacute cervical spinal cord injuries (SCI). Subjects received AST-OPC1 via direct intra-spinal injection using a Syringe Positioning Device (SPD). To prevent rejection of engraftment, low dose tacrolimus was initiated 6 to 12 hours after and intra-spinal injection, and continued for 46 days, tapered from Day 46 to Day 60, and was discontinued at Day 60. Subjects were followed for 1 year following administration of AST-OPC1 under this protocol. Male or female subjects from 18 to 69 years of age at time of consent with sensorimotor complete, traumatic SCI (American Spinal Injury Association Impairment Scale A) or sensorimotor incomplete, traumatic SCI (American Spinal Injury Association Impairment Scale B). […] There was a single spinal cord lesion on a post-stabilization magnetic resonance imaging (MRI) scan, with sufficient visualization of the spinal cord injury epicenter and lesion margins to enable post-injection safety monitoring. Subjects were able to participate in an elective surgical procedure to inject AST-OPC1 21 to 42 days following SCI. Subjects received a single dose of either 2×10^6, 1×10^7, or 2×10^7 AST-OPC1 viable cells by injection, administered 21 to 42 days following SCI. The product was delivered intraoperatively into the spinal cord using the Syringe Positioning Device. The AST-OPC1 batch numbers used in this study were M08D1A, M22D1A and M25D1A. Single administration of AST-OPC1 was provided with 1 year of follow-up. Schematics of the planned study timeline, and subject screening and treatment, are provided in FIG. 6 and FIG. 7, respectively. A schematic diagram of the final open-label, staggered dose-escalation, multicenter Phase 1/2a clinical trial is shown in FIG. 8. An overview of study visits for the one-year protocol is presented in the study schema in FIG. 9.
A neurological examination was completed using the standardized International Standards for Neurological Classification of Spinal Cord Injury (ISNCSCI) examination for motor and sensory testing and for designation of the American Spinal Injury Association impairment scale. The ISNCSCI is used for efficacy with respect to improved motor function in the extremities, improved sensory function, and/or a descending neurological level. Safety assessments included physical examination, vital signs, ISNCSCI neurological examination, pain questionnaire (International Spinal Cord Injury Pain Basic Data Set, ISCIPBDS), electrocardiogram (ECG), Magnetic Resonance Imaging (MRI), laboratory tests, concomitant medications, and adverse events (AEs). Results for the ISNCSCI were listed for each subject by scheduled visit and analyzed by change in motor level and motor scores as well as other exploratory assessments of arm/hand function, self-care ability and overall volitional performance. Adverse events were tabulated by system organ class and by preferred term within system organ class according to the Medical Dictionary for Regulatory Activities (MedDRA®) Version 18.0. Statistical analysis of the safety data was performed using descriptive statistical methods including AEs incidence, severity and relatedness to AST-OPC1, to the injection procedure for product administration, and concomitant immunosuppression with tacrolimus. The number of laboratory assessments (hematology, clinical chemistry) that were below, within, or above the normal laboratory reference range were summarized for each analyte at scheduled study visits. Vital signs were summarized by calculating the mean, standard deviation, median, and range of values at each of the protocol-specified time points.
Study Endpoints. […]

[2] = test system: participants with neurologically complete thoracic spinal cord injury (T3-T11); assay: Phase 1 thoracic SCI trial (NCT01217008): safety, adverse events; format: in vivo, human; conditions: N=5
Method: Study design. The trial design was an open-label, multicenter study. A single dose of 2×10^6 LCTOPC1 was injected within 7 to 14 days following SCI. Subjects who received LCTOPC1 also received tacrolimus to prevent rejection.
This study was a Phase 1, multi-center, non-randomized, a single group assignment interventional clinical trial. The Participants were enrolled from one of seven centers in the United States. The study was registered (NCT01217008) and the primary endpoint was safety, as measured by the frequency and severity of adverse events related to LCTOPC1, the injection procedure used to administer LCTOPC1, and/or the concomitant immunosuppression administered. The secondary endpoint was neurological function as measured by sensory scores and lower extremity motor scores on ISNCSCI examinations.
Safety Assessments. The primary endpoint of the Phase 1 clinical trial was safety, as measured by the frequency and severity of adverse events (AEs) within 1 year of LCTOPC1 injection that were related to LCTOPC1, the injection procedure used to administer LCTOPC1, and/or the concomitant immunosuppression administered. […]
Definition of an Adverse Event. […] The severity of AEs and the characterization of Serious Adverse Events (SAEs) were evaluated using standard FDA criteria.
The relationship of AEs to the investigational drug was determined by each site investigator and was categorized as “Possibly Related” based on the following criteria: 1) the AE was reasonably related in time with LCTOPC1 exposure, the injection procedure used to administer LCTOPC1, and/or the concomitant immunosuppression administered AND 2) the AE could be explained either by exposure to the investigational product or equally well by factors or causes other than exposure to the investigational product. Adverse events were monitored by the External Medical Monitor, Sponsor Medical Monitor, and DSMB.

[3] = test system: dorsal funicular lesion (DFL) SCI model; conditions: cited from earlier work

Molecule | Hypomagnesemia: Days from Injection ([1]; both, human, in vivo) [days] | Nausea: Days from Injection ([1]; both, human, in vivo) [days] | Decreased Appetite: Severity ([1]; both, human, in vivo, 365 days) | Hypomagnesemia: Severity ([1]; both, human, in vivo, 365 days) | Nausea: Severity ([1]; both, human, in vivo, 365 days) | Bacterial infection: Days from Injection ([1]; causality Tacrolimus) [days] | Bacterial infection: Outcome ([1]; causality Tacrolimus) | Bacterial infection: Severity ([1]; causality Tacrolimus) | Decreased Appetite: Outcome ([1]; in vivo) | Hypomagnesemia: Outcome ([1]; in vivo) | Nausea: Outcome ([1]; in vivo) | Grade 1 AEs possibly related specifically to tacrolimus (number) [2] | Grade 2 AEs possibly related specifically to tacrolimus (number) [2] | AEs possibly related specifically to the immunosuppression (number of the 25) ([2]; tacrolimus to Day 60, trough 3 to 7 ng/mL) | Acute scarring and wound cavitation ([3]; DFL SCI model, adult rats) | Axonal regrowth ([3]; acute and chronic experiments, vs PBS-treated DFL) | Inflammation, glial scar formation and CSPG expression ([3]; after acute spinal cord injury)
C=CC[C@@H]1/C=C(\C)C[C@H](C)C[C@H](OC)[C@H]2O[C@@](O)(C(=O)C(=O)N3CCCC[C@H]3C(=O)O[C@H](/C(C)=C/[C@@H]3CC[C@@H](O)[C@H](OC)C3)[C@H](C)[C@@H](O)CC1=O)[C@H](C)C[C@@H]2OC [Tacrolimus, tacrolimus] | 5 to 43 | 7 | Grade 2 | Grade 1-2 | Grade 2 | 30 | Resolved | Grade 3 | Resolved | Resolved | Resolved | Seven | nine | Sixteen | – | – | –
B1 | – | – | – | – | – | – | – | – | – | – | – | – | – | – | suppressed acute scarring (fibrogenesis) and wound cavitation | promoted axonal regrowth | inhibit inflammation, glial scar formation and CSPG expression

Reference: patent US20240082311A1, “COMPOSITIONS AND METHODS FOR TREATING SPINAL CORD INJURIES” (ASTERIAS BIOTHERAPEUTICS, INC., priority 2021, published 2024)
